Drawing on ChEMBL document CHEMBL1150173, “Antiviral saponins from Tieghemella heckelii” (J Nat Prod, 2002), this text covers inhibition and Activity for 4 molecules.

Active and inactive are the calls of the source. The calls are words filed in the database; no cut-off is given here.

Data set [1] has as its system Human immunodeficiency virus 1. Put plainly: Inhibition of HIV1 in wild type CHO cells mediated human HeLa-CD4+ cell fusion assessed as inhibition of syncytium formation at 20 uM by cell-cell fusion assay. It is filed as functional.
The test system of a further data set is HeLa. Put plainly: Cytotoxicity against human HeLa cells expressing CD4+ construct at 20 uM after 3 days by MTT assay. It is filed as cell-based. As to conditions: 72 h. (In general: Tetrazolium dyes change colour on reduction, which living cells bring about.)

The term inhibition denotes the relative decrease from the control value, in per cent. `C[C@@H]1O[C@@H](O[C@@H]2[C@@H](O)[C@H](O[C@@H]3[C@@H](O)[C@@H](O)[C@H](O[C@H]4[C@H](OC(=O)[C@]56CCC(C)(C)C[C@H]5C5=CC[C@@H]7[C@@]8(C)C[C@H](O)[C@H](O[C@@H]9O[C@H](CO)[C@@H](O)[C@H](O)[C@H]9O)[C@@](C)(CO)[C@@H]8[C@H](O)C[C@@]7(C)[C@]5(C)C[C@H]6O)OC[C@H](O)[C@@H]4O)O[C@H]3C)OC[C@H]2O)[C@H](O)[C@H](O)[C@H]1O` [ARGANINE C]: the inhibition at 20 µM in data set [1] (Human immunodeficiency virus 1, CHO) turned out to be 100%. For the same molecule, the Activity entry in the data set with HeLa is “Non-toxic”.

As for `CC1(C)CC[C@]2(C(=O)O)[C@H](O)C[C@]3(C)C(=CC[C@@H]4[C@@]5(C)C[C@H](O)[C@H](O[C@@H]6O[C@H](CO)[C@@H](O)[C@H](O)[C@H]6O)[C@@](C)(CO)[C@@H]5[C@H](O)C[C@]43C)[C@@H]2C1`, the outcome in data set [1] was inactive.

For `C[C@@H]1O[C@@H](O[C@@H]2[C@@H](O)[C@H](O[C@@H]3[C@@H](O)[C@@H](O)[C@H](O[C@H]4[C@H](OC(=O)[C@]56CCC(C)(C)C[C@H]5C5=CC[C@@H]7[C@@]8(C)C[C@H](O)[C@H](O[C@@H]9O[C@H](C(=O)O)[C@@H](O)[C@H](O)[C@H]9O)[C@@](C)(CO)[C@@H]8[C@H](O)C[C@@]7(C)[C@]5(C)C[C@H]6O)OC[C@H](O)[C@@H]4O)O[C@H]3C)OC[C@H]2O)[C@H](O)[C@H](O)[C@H]1O` [TIEGHEMELIN], the Activity result in the data set with HeLa is listed as “Non-toxic”.

With `CC1(C)CC[C@]2(C(=O)O)[C@H](O)C[C@]3(C)C(=CC[C@@H]4[C@@]5(C)C[C@H](O)[C@H](O[C@@H]6O[C@H](C(=O)O)[C@@H](O)[C@H](O)[C@H]6O)[C@@](C)(CO)[C@@H]5[C@H](O)C[C@]43C)[C@@H]2C1`, in data set [1], the outcome was inactive.
